What was measured:
Type in all cases: in vivo, rat
[1] = system: ARA-C-induced alopecia; assay: ARA-C-induced alopecia in young rats
Method: Sprague Dawley rats were purchased from Charles River Laboratories, Wilmington, Mass. Cytosar-U (ARA-C) was from the Upjohn Company, Kalamazoo, Mich. Receptor grade EGF from mouse submaxillary glands, human recombinant EGF, dimethyl sulfoxide (DMSO) and Vitamin D3 were purchased from Sigma Chemical Co., St. Louis, Mo. aFGF was purchased from AMGEN Corp., Thousand Oaks, Calif.
All rats from each experiment were treated with ARA-C 50 mg/kg intraperitoneally (i.p.) daily for 7 days. For subcutaneous (s.c.) injections, EGF and FGF were prepared in PBS 1% BSA. Alopecia was always recorded on day 12 of experiment, and scored as previously described (Hussein et al, Science, 249:1564-1566, 1990; Jimenez et al, FASEB J., 1991).
For topical treatment, murine EGF was prepared as follows: One vial of EGF (100 μg) was dissolved in 0.2 ml of PBS 1% BSA and 0.12 ml of this solution was added to 0.48 of DMSO. Three hours prior to ARA-C injection, 0.1 ml of the EGF-DMSO mixture was applied to each rat over a 1 cm^2 area between the shoulders using a rubber tip applicator. Rats were then kept individually separated for a period of three hours, following which the treated area was carefully washed with soap and water and dried. Treatment was continued for 7 days. Control animals were similarly treated using DMSO without EGF.
Two separate experiments were conducted to test the ability of murine EGF to protect from ARA-C-induced alopecia. In Experiment I, twenty-two 7-day old rats were randomized in two groups of eleven rats each. In addition to ARA-C, Group I received 2 μg of mouse EGF s.c. in the back between the two hind legs 3 hours prior to ARA-C injections daily for 7 days. Group II, received buffer solution similarly and served as control. Ten of eleven rats in Group II developed virtually total body alopecia and one rat developed more than 50% hair loss. In contrast, in Group I, 5 rats had no detectable hair loss and 6 rats had mild hair loss (Table I, Experiment I (FIG. 1)). In Experiment II, twelve 7-day old rats were randomized in two groups of 6 rats each. In addition to ARA-C, Group I received mouse EGF 1 μg s.c. daily for 7 days. Group II received buffer s.c. All 6 rats in Group II developed moderately severe to severe alopecia, whereas in Group I, one rat had no detectable hair loss and 5 rats developed only minimal hair loss (Table I, Experiment II).
For the next experiment, rHu-EGF was used. Twelve 7-day old rats were randomized in two groups of six rats each. In addition to ARA-C, Group I received rHu-EGF 2 μg s.c. in the flank area daily for 7 days. Group II received buffer s.c. All 6 rats in Group II developed total body alopecia, whereas in Group I none of the rats had total body alopecia, one rat had no detectable hair loss, four rats had mild alopecia and one rat had moderate alopecia (Table I, Experiment III, (FIG. 2)).
In the next experiment, twelve 7-day old rats were randomized in two groups of six rats each. Group I, in addition to ARA-C, received murine-EGF 10 μg in DMSO daily×7 days rubbed topically with a cotton tip applicator between the shoulder blades over an area of 1 cm^2. Group II received control solution topically. In Group II, all six rats developed complete body alopecia.
Fourteen 7-day old rats were randomized in two groups. All rats received ARA-C 50 mg/kg/day for seven days. In addition, Group I received aFGF 2 μg s.c. on back of head daily for seven days. Group II received buffer injections and served as controls. Alopecia was recorded on day 12 of experiment. All rats in Group II developed complete body alopecia.

[2] = system: VP-16-induced alopecia; assay: VP-16 (Etoposide)-induced alopecia in young rats
Method: Twelve 7 day old rats were randomized in two groups. Group I was treated daily with buffer 0.1 ml s.c. for four days. The second Group was treated daily with Vitamin D3 50 μg s.c. over head for four days. After stopping the buffer or Vitamin D3 treatment, all rats received 1.5 mg/kg i.p. of VP-16 (Etoposide) daily for three days.
(§1) 1,25-Dihydroxyvitamin D3 was dissolved in absolute ethanol and applied topically with an applicator. Control animals were similarly treated with the same amount of ethanol. Animals were then kept individually separated for a period of three hours following which the treated area was carefully washed with soap and water and dried. Treatment was given daily beginning on day 5 after birth and ending on day 10.
(§2) All chemotherapies were given I.P. and started at 11 days of age. CTX, 35 mg/kg, was given for one day only. VP-16, 1.5 mg/kg, was given for three days. For CTX and ADM combination, CTX, 25 mg/kg was given for one day and ADM, 2.5 mg/kg, for three days. At these doses neither CTX nor ADM alone will produce alopecia. Alopecia was recorded on the tenth day from beginning chemotherapy.
(§3) A total of 4 experiments were carried out. In the first experiment, protection from Cytoxan-induced alopecia was examined. The experimental group was pretreated with 0.2 μg of 1,25-dihydroxyvitamin D3 in 0.15 ml of absolute ethanol applied topically over the head and neck and the control group received 0.15 ml of alcohol. All 10 rats in the control group became totally alopecic. […] The second experiment was carried out under similar conditions to examine protection from VP-16-induced alopecia. All 10 rats in the control group developed total body alopecia. […] The third experiment was designed to examine protection from alopecia induced by Cytoxan-Adriamycin combination. There were 11 rats in each group. Six rats in the control group developed alopecia over the head and neck and 5 rats developed total body alopecia. […] In the fourth experiment, protection from VP-16-induced alopecia was similarly examined except that the dose of 1,25-dihydroxyvitamin D3 was reduced to 0.1 μg in 0.1 ml absolute ethanol applied topically over the head area only. All 10 rats in the control group became completely alopecic.
as §1, with “RO 23-7553 (1,25 dihydroxy-16-ene-23-yne-cholecalciferol)” for “1,25-Dihydroxyvitamin D3”, “9” for “5”, “14.” for “10.”
On day 15 all animals received VP-16, 1.5 mg/kg i.p., for three days. Alopecia was recorded on day 25.
Thirteen rats were randomized in two groups. Experimental group, 7 rats; control group, 6 rats. The experimental group was pretreated with 1 μg of RO 23-7553 in 0.2 ml absolute ethanol applied topically over the neck and back and the control group received 0.2 ml of absolute ethanol. All six rats in the control group became totally alopecic over the neck and back.

[3] = system: Cytoxan/Adriamycin-induced alopecia; assay: Cytoxan/Adriamycin combination-induced alopecia in young rats
Method: Eight 4-day old Sprague Dawley rats were randomized in two groups of 4 rats each. Group I, received EGF […] s.c. on the head daily for 7 days. Group II received buffer injections and served as controls. One day after stopping EGF or buffer injections all rats received Cytoxan 25 mg/kg i.p.×1 day and Adriamycin 2.5 mg/kg i.p.×3 days. […] (FIG. 5).
as §1
as §2, with “At these doses neither CTX nor ADM alone will produce alopecia.” left out
as §3, with “alcohol.” for “alcohol. All 10 rats in the control group became totally alopecic.”, “VP-16-induced” for “VP-16-induced alopecia. All 10 rats in the control group developed total body”, “group.” for “group. Six rats in the control group developed alopecia over the head and neck and 5 rats developed total body alopecia.”, “only.” for “only. All 10 rats in the control group became completely alopecic.”

[4] = system: Cytoxan-induced alopecia; assay: Cytoxan-induced alopecia in young rats; details: 50 μg daily i.p. or s.c. for 4 days prior to chemotherapy; Cytoxan 32.5 mg/kg single injection; 7 experiments, 89 animals
[5] = Experiment III, 2 μg s.c. in flank daily × 7 days with ARA-C 50 mg/kg i.p. × 7 days, 6 rats, day 12
[6] = Experiment III, 2 μg s.c. in flank daily × 7 days with ARA-C 50 mg/kg i.p. × 7 days, 6 rats, day 12, listed as rHu-ECF
[7] = Experiment I, 2 μg s.c. daily × 7 days, 3 hours prior to ARA-C 50 mg/kg i.p. × 7 days, 11 rats, day 12
[8] = Experiment II, 1 μg s.c. daily × 7 days with ARA-C 50 mg/kg i.p. × 7 days, 6 rats, day 12
[9] = 2μ s.c. on the head daily for 7 days, then Cytoxan 25 mg/kg i.p. × 1 day and Adriamycin 2.5 mg/kg i.p. × 3 days, 4 rats

rHu-EGF: human recombinant EGF (Sigma)
Number of rats with alopecia 0 (no detectable alopecia) [1, 5]: one | Number of rats with alopecia 1+ (mild, less than 50% hair loss) [1, 5]: four | Number of rats with alopecia 2+ (moderately severe, more than 50% hair loss) [1, 5]: one | Number of rats with alopecia 3+ (total or virtually total, >90% hair loss) [1, 5]: none | Number of rats with alopecia 0 (no detectable alopecia) [1, 6]: 1 | Number of rats with alopecia 1+ (mild, less than 50% hair loss) [1, 6]: 4 | Number of rats with alopecia 2+ (moderately severe, more than 50% hair loss) [1, 6]: 1 | Number of rats with alopecia 3+ (total or virtually total, >90% hair loss) [1, 6]: 0

aFGF: aFGF, a fibroblast growth factor, purchased from AMGEN Corp.
Protection from ARA-C-induced alopecia ([1]; 2 μg s.c. on back of head daily for seven days, ARA-C 50 mg/kg/day for seven days, day 12): protected locally at the site of injection

C=C1/C(=C\C=C2/CCC[C@]3(C)C([C@H](C)CC#CC(C)(C)O)=CC[C@@H]23)C[C@@H](O)C[C@@H]1O [RO 23-7553, 1,25 dihydroxy-16-ene-23-yne-cholecalciferol]
Protection from VP-16-induced alopecia ([2]; 1 μg in 0.2 ml absolute ethanol topically over neck and back, day 9 to 14 after birth, VP-16 1.5 mg/kg i.p. for three days from day 15, recorded day 25, 7 rats): all animals in the experimental group were protected

Murine EGF: Receptor grade EGF from mouse submaxillary glands (Sigma) (NSYPGCPSSYDGYCLNGGVCMHIESLDSYTCNCVIGYSGDRCQTRDLRWWELR; Epidermal growth factor; UniProt P01132 977-1029, looked up)
Alopecia after topical treatment ([1]; 10 μg in DMSO daily × 7 days topically between shoulder blades over 1 cm^2, ARA-C 50 mg/kg × 7 days, 6 rats): all rats developed complete body alopecia except where the EGF was applied topically | Number of rats with alopecia 0 (no detectable alopecia) [1, 7]: 5 | Number of rats with alopecia 1+ (mild, less than 50% hair loss) [1, 7]: 6 | Number of rats with alopecia 2+ (moderately severe, more than 50% hair loss) [1, 7]: 0 | Number of rats with alopecia 3+ (total or virtually total, >90% hair loss) [1, 7]: 0 | Number of rats with alopecia 0 (no detectable alopecia) [1, 8]: 1 | Number of rats with alopecia 1+ (mild, less than 50% hair loss) [1, 8]: 5 | Number of rats with alopecia 2+ (moderately severe, more than 50% hair loss) [1, 8]: 0 | Number of rats with alopecia 3+ (total or virtually total, >90% hair loss) [1, 8]: 0 | Number of rats with alopecia 0 (no detectable alopecia) ([1]; Experiment II, 1 μg s.c. daily × 7 days with ARA-C 50 mg/kg i.p. × 7 days, 6 rats, day 12, listed as mouse EGF): one | Number of rats with mild alopecia over head and neck [3, 9]: one | Number of rats with minimal alopecia over head and neck [3, 9]: one | Number of rats with no detectable alopecia over head and neck [3, 9]: two

C=C1CC[C@H](O)C/C1=C/C=C1\CCC[C@]2(C)[C@@H]([C@H](C)CCCC(C)C)CC[C@@H]12 [Vitamin D3]
Protection from alopecia [4]: excellent protection and Yes* | Protection from alopecia ([1]; 50 μg daily i.p. or s.c. for 4 days prior to chemotherapy, ARA-C 50 mg/kg i.p. daily for 7 days, 1 experiment, 8 animals): excellent protection and Yes* | Protection from alopecia ([2]; 50 μg daily i.p. or s.c. for 4 days prior to chemotherapy, VP-16 1.5 mg/kg i.p. daily for 3 days, 2 experiments, 22 animals): excellent protection and Yes* | Protection from VP-16-induced alopecia ([2]; 50 μg s.c. over head daily for four days, then VP-16 1.5 mg/kg i.p. daily for three days): protected | Protection from alopecia ([3]; 50 μg daily i.p. or s.c. for 4 days prior to chemotherapy, Adriamycin 2.5 mg/kg i.p. daily for 3 days plus Cytoxan 25 mg/kg single injection, 6 experiments, 77 animals): excellent protection and Yes*
